As a reminder, the EC50 is the concentration needed to bring the measured effect to its halfway point.

Data on 14 compounds can be found in ChEMBL document CHEMBL4145629, “Synthesis of Thymoquinone-Artemisinin Hybrids: New Potent Antileukemia, Antiviral, and Antimalarial Agents” (ACS Med Chem Lett, 2018).

SMILES strings stand for the structures. A value given as a limit tells only on which side of the number the result lay.

In one data set the test system is CCRF-CEM. In words: Cytotoxicity against human CCRF-CEM cells assessed as reduction in cell viability after 72 hrs by resazurin dye based assay. Format: functional. On the technique in general: Resazurin is reduced to fluorescent resorufin, in cell work by metabolically active cells.
Another data set has as its system ADR5000 cell line. The experiment in a line: Cytotoxicity against human CEM/ADR5000 cells overexpressing P-gp assessed as reduction in cell viability after 72 hrs by resazurin dye based assay. It counts as functional. The settings on record: ADR5000, 72 h.
The next data set has as its system Plasmodium falciparum. The experiment in a line: Antiplasmodial activity against Plasmodium falciparum 3D7 ring stage parasites infected in human erythrocytes after 72 hrs by SYBR Green 1 dye based fluorescence assay. It counts as functional, organism-based. The following applies: 3D7, 72 h.
Data set [1] relates to Human betaherpesvirus 5. The experiment in a line: Potency index, ratio of ganciclovir EC50 to compound EC50 for recombinant HCMV AD169 expressing GFP infected in human foreskin fibroblast. Format: functional.
Data set [2] has as its system Human betaherpesvirus 5. The experiment in a line: Potency index, ratio of artesunic acid EC50 to compound EC50 for recombinant HCMV AD169 expressing GFP infected in human foreskin fibroblast. It counts as functional.
A further data set deals with HFF. In words: Cytotoxicity against human HFF cells at 1 uM. It counts as cell-based.

Regarding `CC1=C(CCCCOC2O[C@@H]3O[C@@]4(C)CC[C@H]5[C@H](C)CC[C@@H]([C@H]2C)[C@@]35OO4)C(=O)C(C(C)C)=CC1=O` (stereo partly specified), the EC50 with CCRF-CEM came to 300 nM; in the data set on ADR5000 cell line it was 200 nM; in the data set on Plasmodium falciparum it was 3.7 nM. Also, the “Ratio EC50” value was 5 with Human betaherpesvirus 5 [1] and 8 in the data set on Human betaherpesvirus 5 [2].
`CC1=C(CCCOC(=O)CCC(=O)O[C@@H]2O[C@@H]3O[C@@]4(C)CC[C@H]5[C@H](C)CC[C@@H]([C@H]2C)[C@@]35OO4)C(=O)C(C(C)C)=C(CCCOC(=O)CCC(=O)O[C@@H]2O[C@@H]3O[C@@]4(C)CC[C@H]5[C@H](C)CC[C@@H]([C@H]2C)[C@@]35OO4)C1=O`: the values for the EC50 in the data set on CCRF-CEM, in the data set on ADR5000 cell line and with Plasmodium falciparum were 200 nM, 200 nM and 4.3 nM, respectively.
As to `CC1=C(CCCCOC(=O)CCC(=O)O[C@@H]2O[C@@H]3O[C@@]4(C)CC[C@H]5[C@H](C)CC[C@@H]([C@H]2C)[C@@]35OO4)C(=O)C(C(C)C)=CC1=O`, the values for the EC50 in the data set on CCRF-CEM, with ADR5000 cell line and in the data set with Plasmodium falciparum were 1400 nM, 800 nM and 7.7 nM, respectively.
Taken in the same sequence, the figures for `CC1=C(CCCOC(=O)CC(=O)OCCOC(=O)CCC(=O)O[C@@H]2O[C@@H]3O[C@@]4(C)CC[C@H]5[C@H](C)CC[C@@H]([C@H]2C)[C@@]35OO4)C(=O)C(C(C)C)=CC1=O` were 80 nM, 8200 nM and 4.4 nM.
Regarding `COc1cccc2c1C(=O)c1c(O)c3c(c(O)c1C2=O)C[C@@](O)(C(=O)CO)C[C@@H]3O[C@H]1C[C@H](N)[C@H](O)[C@H](C)O1` [DOXORUBICIN], the EC50 with CCRF-CEM is 9 nM; in the data set with ADR5000 cell line, 23300 nM.
For `C[C@H]1[C@H](OC(=O)CCC(=O)O)O[C@@H]2O[C@@]3(C)CC[C@H]4[C@H](C)CC[C@@H]1[C@@]24OO3` [ARTESUNATE], the 50% effective concentration (EC50) is 400 nM in the data set on CCRF-CEM, 100 nM in the data set on ADR5000 cell line and 8.2 nM in the data set on Plasmodium falciparum.
On to `CC1=C(CCCOC(=O)CCC(=O)O[C@@H]2O[C@@H]3O[C@@]4(C)CC[C@H]5[C@H](C)CC[C@@H]([C@H]2C)[C@@]35OO4)C(=O)C(C(C)C)=CC1=O`, for which the concentration giving a half-maximal response (EC50) is 500 nM in the data set with CCRF-CEM, 1300 nM with ADR5000 cell line and 6.9 nM with Plasmodium falciparum.
With `CC1=C(CCCOC2O[C@@H]3O[C@@]4(C)CC[C@H]5[C@H](C)CC[C@@H]([C@H]2C)[C@@]35OO4)C(=O)C(C(C)C)=CC1=O` (stereo partly specified), the EC50 with CCRF-CEM stood at 200 nM; with ADR5000 cell line, 200 nM; with Plasmodium falciparum, 5.9 nM. In addition, the results for the “Ratio EC50” value in the data set on Human betaherpesvirus 5 [1] and in the data set on Human betaherpesvirus 5 [2] were 5 and 8, respectively.
As to `CC1=C(CCOC(=O)CCC(=O)O[C@@H]2O[C@@H]3O[C@@]4(C)CC[C@H]5[C@H](C)CC[C@@H]([C@H]2C)[C@@]35OO4)C(=O)C(C(C)C)=CC1=O`, the EC50 in the data set on CCRF-CEM is 1200 nM; in the data set with ADR5000 cell line it was 1000 nM; with Plasmodium falciparum, 8.2 nM.
`CC1=CC(=O)C(C(C)C)=CC1=O` [THYMOQUINONE]: the EC50 in the data set on Plasmodium falciparum was over 80000 nM.
Still for that read-out and setting: with `CC1=C(CCCOC(=O)C[C@H]2O[C@@H]3O[C@@]4(C)CC[C@H]5[C@H](C)CC[C@@H]([C@H]2C)[C@@]35OO4)C(=O)C(C(C)C)=CC1=O` the figure was 54 nM.
On to `CC1=C(CCCCOC(=O)CCC(=O)OCC(C[C@H]2O[C@@H]3O[C@@]4(C)CC[C@H]5[C@H](C)CC[C@@H]([C@H]2C)[C@@]35OO4)C[C@H]2O[C@@H]3O[C@@]4(C)CC[C@H]5[C@H](C)CC[C@@H]([C@H]2C)[C@@]35OO4)C(=O)C(C(C)C)=CC1=O` (stereo partly specified), for which the figures for the EC50 with CCRF-CEM, with ADR5000 cell line and in the data set with Plasmodium falciparum were 2.7 nM, 7870 nM and 12.2 nM, respectively. Also, the Activity in the data set with HFF amounted to 50%.
In the data set with Plasmodium falciparum, `CC1=C(CCCCOC(=O)C[C@H]2O[C@@H]3O[C@@]4(C)CC[C@H]5[C@H](C)CC[C@@H]([C@H]2C)[C@@]35OO4)C(=O)C(C(C)C)=CC1=O` gave a 50% effective concentration (EC50) of 17.5 nM.
As for `CC1=C(CCCCOC(=O)CCC(=O)O[C@@H]2O[C@@H]3O[C@@]4(C)CC[C@H]5[C@H](C)CC[C@@H]([C@H]2C)[C@@]35OO4)C(=O)C(C(C)C)=C(CCCCOC(=O)CCC(=O)O[C@@H]2O[C@@H]3O[C@@]4(C)CC[C@H]5[C@H](C)CC[C@@H]([C@H]2C)[C@@]35OO4)C1=O`, the concentration for a half-maximal effect (EC50) turned out to be 6070 nM in the data set with CCRF-CEM, 5660 nM in the data set with ADR5000 cell line and 12.1 nM in the data set with Plasmodium falciparum. In the data set with HFF, this compound registered an Activity of 50%.
